Assay results as given in ChEMBL document CHEMBL1136685, “Structure-activity relationship of cyclic peptide penta-c[Asp-His(6)-DPhe(7)-Arg(8)-Trp(9)-Lys]-NH(2) at the human melanocortin-1 and -4 receptors: His(6) substitution” (Bioorg Med Chem Lett, 2003).

Legend:
[1] = target: T1, Melanocyte-stimulating hormone receptor (Homo sapiens, UniProt Q01726); test: Agonist activity at human melanocortin receptor (hMC1R).; type: functional
Target sequence in this assay (Q01726 whole entry): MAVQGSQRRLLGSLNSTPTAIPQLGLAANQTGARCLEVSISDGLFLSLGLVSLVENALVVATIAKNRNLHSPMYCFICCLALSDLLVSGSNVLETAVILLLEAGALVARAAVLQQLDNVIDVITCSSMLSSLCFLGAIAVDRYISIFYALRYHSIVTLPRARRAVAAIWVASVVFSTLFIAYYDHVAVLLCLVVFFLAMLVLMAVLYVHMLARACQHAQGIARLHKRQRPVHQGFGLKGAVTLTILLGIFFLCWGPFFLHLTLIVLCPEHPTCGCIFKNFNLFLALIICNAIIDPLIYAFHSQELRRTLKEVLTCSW

Melanocortin receptor 4 [2] = target: T2, Melanocortin receptor 4 (Homo sapiens, UniProt P32245); test: Agonist activity at human melanocortin receptor (hMC4R).; type: functional
[3] = target: T1, Melanocyte-stimulating hormone receptor; test: Agonistic activity against human melanocortin receptor (hMC1R) for cAMP accumulation at a concentration of 50 uM; type: functional
Target sequence in this assay (Q01726 whole entry, looked up): as the sequence (Q01726 whole entry) above

Melanocortin receptor 4 [4] = target: T2, Melanocortin receptor 4; test: Agonistic activity against human melanocortin receptor (hMC4R) for cAMP accumulation; type: functional
Melanocortin receptor 4 [5] = target: T2, Melanocortin receptor 4; test: Binding affinity towards human melanocortin receptor (hMC4R) using NDP-MSH as radioligand
[6] = target: T1, Melanocyte-stimulating hormone receptor; test: Binding affinity towards human melanocortin receptor (hMC1R) using NDP-MSH as radioligand
Target sequence in this assay (Q01726 whole entry): as above

Melanocortin receptor 5 = Melanocortin receptor 5 (Homo sapiens, UniProt P33032); test: Agonistic activity against human melanocortin receptor (hMC5R) for cAMP accumulation at a concentration of 50 uM; type: functional
Melanocortin receptor 3 = Melanocortin receptor 3 (Homo sapiens, UniProt P41968); test: Agonistic activity against human melanocortin receptor (hMC3R) for cAMP accumulation at a concentration of 50 uM; type: functional
Chain of Melanocortin receptor 3 (P41968 whole entry): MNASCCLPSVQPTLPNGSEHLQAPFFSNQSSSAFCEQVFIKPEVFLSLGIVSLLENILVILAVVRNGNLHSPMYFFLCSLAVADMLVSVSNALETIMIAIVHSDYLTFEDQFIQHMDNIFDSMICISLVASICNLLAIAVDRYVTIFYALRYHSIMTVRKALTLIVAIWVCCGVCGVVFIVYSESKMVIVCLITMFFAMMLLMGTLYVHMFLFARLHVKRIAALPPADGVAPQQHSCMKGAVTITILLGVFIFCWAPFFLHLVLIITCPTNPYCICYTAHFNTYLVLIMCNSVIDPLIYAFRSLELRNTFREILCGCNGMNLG

Chain of Melanocortin receptor 5 (P33032 whole entry): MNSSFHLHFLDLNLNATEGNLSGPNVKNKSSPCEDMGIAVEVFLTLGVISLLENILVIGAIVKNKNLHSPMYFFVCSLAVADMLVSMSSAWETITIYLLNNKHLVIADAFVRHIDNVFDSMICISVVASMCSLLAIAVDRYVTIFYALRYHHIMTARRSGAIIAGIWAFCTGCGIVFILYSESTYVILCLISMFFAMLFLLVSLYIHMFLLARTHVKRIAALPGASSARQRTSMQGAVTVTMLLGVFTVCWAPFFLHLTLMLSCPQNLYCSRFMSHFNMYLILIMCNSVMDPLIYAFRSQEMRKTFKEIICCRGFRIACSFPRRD
T2 sequence (P32245 whole entry): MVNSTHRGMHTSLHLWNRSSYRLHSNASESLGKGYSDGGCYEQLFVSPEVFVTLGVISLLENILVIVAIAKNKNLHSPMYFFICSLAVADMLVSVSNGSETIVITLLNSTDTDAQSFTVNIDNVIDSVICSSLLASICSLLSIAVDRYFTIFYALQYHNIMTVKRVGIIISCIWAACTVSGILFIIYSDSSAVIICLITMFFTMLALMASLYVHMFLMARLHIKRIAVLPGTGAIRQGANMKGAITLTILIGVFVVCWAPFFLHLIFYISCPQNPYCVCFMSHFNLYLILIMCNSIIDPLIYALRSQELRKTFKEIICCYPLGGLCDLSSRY

Structure (SMILES) | EC50 [1] [µM] | EC50 (Melanocortin receptor 4 [2]) [µM] | cAMP accumulation [3] [%] | further results
CCCCC(=O)N[C@H]1CC(=O)NCCCC[C@@H](C(N)=O)NC(=O)[C@H](Cc2c[nH]c3ccccc23)NC(=O)[C@H](CCCN=C(N)N)NC(=O)[C@@H](Cc2ccccc2)NC(=O)[C@@]2(CCc3c(CC)cccc3C2)NC1=O | 0.42 | 0.008 |  | 
CCCCC(=O)N[C@H]1CC(=O)NCCCC[C@@H](C(N)=O)NC(=O)[C@H](Cc2c[nH]c3ccccc23)NC(=O)[C@H](CCCN=C(N)N)NC(=O)[C@@H](Cc2ccccc2)NC(=O)[C@@H]2Cc3ccccc3CN2C1=O | 0.005 | 0.003 |  | 
CCCC[C@H](NC(C)=O)C(=O)N[C@H]1CC(=O)NCCCC[C@@H](C(N)=O)NC(=O)[C@H](Cc2c[nH]c3ccccc23)NC(=O)[C@H](CCCN=C(N)N)NC(=O)[C@@H](Cc2ccccc2)NC(=O)[C@H](CCC(N)=O)NC1=O | 0.0003 | 0.0003 |  | 
CCCCC(=O)N[C@H]1CC(=O)NCCCC[C@@H](C(N)=O)NC(=O)[C@H](Cc2c[nH]c3ccccc23)NC(=O)[C@H](CCCNC(=N)N)NC(=O)[C@@H](Cc2ccccc2)NC(=O)C2(Cc3ccccc3C2)NC1=O | 0.37 | 0.065 |  | 
CCCCC(=O)N[C@H]1CC(=O)NCCCC[C@@H](C(N)=O)NC(=O)[C@H](Cc2c[nH]c3ccccc23)NC(=O)[C@H](CCCN=C(N)N)NC(=O)[C@@H](Cc2ccccc2)NC(=O)[C@H](Cc2ccc(C(F)(F)F)cc2)NC1=O | 0.012 | 0.002 |  | 
CCCCC(=O)N[C@H]1CC(=O)NCCCC[C@@H](C(N)=O)NC(=O)[C@H](Cc2c[nH]c3ccccc23)NC(=O)[C@H](CCCN=C(N)N)NC(=O)[C@@H](Cc2ccccc2)NC(=O)C2(CCc3cc(Br)ccc3C2)NC1=O (mixture of isomers) |  | 0.037 |  | 
CCCCC(=O)N[C@H]1CC(=O)NCCCC[C@@H](C(N)=O)NC(=O)[C@H](Cc2c[nH]c3ccccc23)NC(=O)[C@H](CCCN=C(N)N)NC(=O)[C@@H](Cc2ccccc2)NC(=O)[C@@]2(CCc3c(cccc3OC)C2)NC1=O (mixture of isomers) | 0.735 | 0.005 |  | 
CCCCC(=O)N[C@H]1CC(=O)NCCCC[C@@H](C(N)=O)NC(=O)[C@H](Cc2c[nH]c3ccccc23)NC(=O)[C@H](CCCN=C(N)N)NC(=O)[C@@H](Cc2ccccc2)NC(=O)[C@@]2(CCc3c(C)cccc3C2)NC1=O (mixture of isomers) |  | 0.025 | 80 | 
CCCCC(=O)N[C@H]1CC(=O)NCCCC[C@@H](C(N)=O)NC(=O)[C@H](Cc2c[nH]c3ccccc23)NC(=O)[C@H](CCCN=C(N)N)NC(=O)[C@@H](Cc2ccccc2)NC(=O)[C@@]2(CCc3ccccc3C2)NC1=O (mixture of isomers) | 0.9 | 0.065 |  | 
CCCCC(=O)N[C@H]1CC(=O)NCCCC[C@@H](C(N)=O)NC(=O)[C@H](Cc2c[nH]c3ccccc23)NC(=O)[C@H](CCCN=C(N)N)NC(=O)[C@@H](Cc2ccccc2)NC(=O)C2(CCc3cc(Cl)ccc3C2)NC1=O (mixture of isomers) |  | 0.033 |  | 
CCCCC(=O)N[C@H]1CC(=O)NCCCC[C@@H](C(N)=O)NC(=O)[C@H](Cc2c[nH]c3ccccc23)NC(=O)[C@H](CCCNC(=N)N)NC(=O)[C@@H](Cc2ccccc2)NC(=O)C2(CCc3c(cccc3C(C)C)C2)NC1=O (mixture of isomers) | 0.48 | 0.007 |  | 
CCCCC(=O)N[C@H]1CC(=O)NCCCC[C@@H](C(N)=O)NC(=O)[C@H](Cc2c[nH]c3ccccc23)NC(=O)[C@H](CCCN=C(N)N)NC(=O)[C@@H](Cc2ccccc2)NC(=O)C2(CCc3c(cccc3N(C)C)C2)NC1=O (mixture of isomers) | 0.48 | 0.045 |  | 
CCCCC(=O)N[C@H]1CC(=O)NCCCC[C@@H](C(N)=O)NC(=O)[C@H](Cc2c[nH]c3ccccc23)NC(=O)[C@H](CCCN=C(N)N)NC(=O)[C@@H](Cc2ccccc2)NC(=O)C2(CCc3cccc(Br)c3C2)NC1=O (mixture of isomers) |  | 0.176 |  | 
CCCCC(=O)N[C@H]1CC(=O)NCCCC[C@@H](C(N)=O)NC(=O)[C@H](Cc2c[nH]c3ccccc23)NC(=O)[C@H](CCCNC(=N)N)NC(=O)[C@@H](Cc2ccccc2)NC(=O)C2(CCc3ccc(Br)cc3C2)NC1=O (mixture of isomers) | 0.14 | 0.01 |  | 
CCCCC(=O)N[C@H]1CC(=O)NCCCC[C@@H](C(N)=O)NC(=O)[C@H](Cc2c[nH]c3ccccc23)NC(=O)[C@H](CCCN=C(N)N)NC(=O)[C@@H](Cc2ccccc2)NC(=O)C2(CCc3c(Cl)cccc3C2)NC1=O (mixture of isomers) |  | 0.009 |  | 
CCCCC(=O)N[C@H]1CC(=O)NCCCC[C@@H](C(N)=O)NC(=O)[C@H](Cc2c[nH]c3ccccc23)NC(=O)[C@H](CCCN=C(N)N)NC(=O)[C@@H](Cc2ccccc2)NC(=O)C2(CCc3c(cccc3OC(C)C)C2)NC1=O (mixture of isomers) | 1.33 | 0.007 |  | 

Structure (SMILES) | EC50 [1] [µM] | EC50 (Melanocortin receptor 4 [2]) [µM] | cAMP accumulation [3] [%] | further results
CCCCC(=O)N[C@H]1CC(=O)NCCCC[C@@H](C(N)=O)NC(=O)[C@H](Cc2c[nH]c3ccccc23)NC(=O)[C@H](CCCNC(=N)N)NC(=O)[C@@H](Cc2ccccc2)NC(=O)C2(CCc3c(cccc3OCC)C2)NC1=O (mixture of isomers) | 1.27 | 0.035 |  | 
CCCCC(=O)N[C@@H]1CC(=O)NCCCC[C@@H](C(N)=O)NC(=O)[C@H](Cc2c[nH]c3ccccc23)NC(=O)[C@@H](CCCN=C(N)N)NC(=O)[C@H](Cc2ccccc2)NC(=O)C2(CCc3c(Cl)cccc3C2)NC1=O (mixture of isomers) |  |  | 30 | 
CCCCC(=O)N[C@@H]1CC(=O)NCCCC[C@@H](C(N)=O)NC(=O)[C@H](Cc2c[nH]c3ccccc23)NC(=O)[C@@H](CCCN=C(N)N)NC(=O)[C@H](Cc2ccccc2)NC(=O)C2(CCc3cc(Br)ccc3C2)NC1=O (mixture of isomers) |  |  | 60 | 
CCCCC(=O)N[C@@H]1CC(=O)NCCCC[C@@H](C(N)=O)NC(=O)[C@H](Cc2c[nH]c3ccccc23)NC(=O)[C@@H](CCCN=C(N)N)NC(=O)[C@H](Cc2ccccc2)NC(=O)C2(CCc3cc(Cl)ccc3C2)NC1=O (mixture of isomers) |  |  | 50 | 
CCCCC(=O)N[C@@H]1CC(=O)NCCCC[C@@H](C(N)=O)NC(=O)[C@H](Cc2c[nH]c3ccccc23)NC(=O)[C@@H](CCCN=C(N)N)NC(=O)[C@H](Cc2ccccc2)NC(=O)C2(CCc3cccc(Br)c3C2)NC1=O (mixture of isomers) |  |  | 60 | 
CCCCC(=O)N[C@H]1CC(=O)NCCCC[C@@H](C(N)=O)NC(=O)[C@H](Cc2c[nH]c3ccccc23)NC(=O)[C@H](CCCN=C(N)N)NC(=O)[C@@H](Cc2ccccc2)NC(=O)C2(CCc3c(Cl)cccc3C2)NC1=O (single isomer, unassigned; form 1) |  |  |  | EC50 (Melanocortin receptor 4 [4]): 0.004 µM; IC50 (Melanocortin receptor 4 [5]): 0.015 µM; IC50 [6]: 5.82 µM
CCCCC(=O)N[C@H]1CC(=O)NCCCC[C@@H](C(N)=O)NC(=O)[C@H](Cc2c[nH]c3ccccc23)NC(=O)[C@H](CCCN=C(N)N)NC(=O)[C@@H](Cc2ccccc2)NC(=O)C2(CCc3c(Br)cccc3C2)NC1=O (single isomer, unassigned; form 1) |  | 0.015 |  | 
CCCCC(=O)N[C@@H]1CC(=O)NCCCC[C@@H](C(N)=O)NC(=O)[C@H](Cc2c[nH]c3ccccc23)NC(=O)[C@@H](CCCN=C(N)N)NC(=O)[C@H](Cc2ccccc2)NC(=O)C2(CCc3c(Br)cccc3C2)NC1=O (single isomer, unassigned; form 1) |  |  | 80 | 
CCCCC(=O)N[C@@H]1CC(=O)NCCCC[C@@H](C(N)=O)NC(=O)[C@H](Cc2c[nH]c3ccccc23)NC(=O)[C@@H](CCCN=C(N)N)NC(=O)[C@H](Cc2ccccc2)NC(=O)C2(CCc3c(Cl)cccc3C2)NC1=O (single isomer, unassigned; form 1) |  |  | 20 | cAMP accumulation (Melanocortin receptor 5): 75%; cAMP accumulation (Melanocortin receptor 3): 25%
CCCCC(=O)N[C@@H]1CC(=O)NCCCC[C@@H](C(N)=O)NC(=O)[C@H](Cc2c[nH]c3ccccc23)NC(=O)[C@@H](CCCNC(N)=O)NC(=O)[C@H](Cc2ccccc2)NC(=O)C2(CCc3c(Cl)cccc3C2)NC1=O (single isomer, unassigned; form 1) |  |  | 0 | cAMP accumulation (Melanocortin receptor 5): 0%; cAMP accumulation (Melanocortin receptor 3): 0%
CCCCC(=O)N[C@H]1CC(=O)NCCCC[C@@H](C(N)=O)NC(=O)[C@H](Cc2c[nH]c3ccccc23)NC(=O)[C@H](CCCN=C(N)N)NC(=O)[C@@H](Cc2ccccc2)NC(=O)[C@@H]2c3ccccc3CN2C1=O (single isomer, unassigned; form 2) | 0.003 | 0.002 |  | 
CCCCC(=O)N[C@H]1CC(=O)NCCCC[C@@H](C(N)=O)NC(=O)[C@H](Cc2c[nH]c3ccccc23)NC(=O)[C@H](CCCN=C(N)N)NC(=O)[C@@H](Cc2ccccc2)NC(=O)C2(CCc3c(Cl)cccc3C2)NC1=O (single isomer, unassigned; form 2) |  |  |  | EC50 (Melanocortin receptor 4 [4]): 0.04 µM
CCCCC(=O)N[C@H]1CC(=O)NCCCC[C@@H](C(N)=O)NC(=O)[C@H](Cc2c[nH]c3ccccc23)NC(=O)[C@H](CCCN=C(N)N)NC(=O)[C@@H](Cc2ccccc2)NC(=O)C2(CCc3c(Br)cccc3C2)NC1=O (single isomer, unassigned; form 2) |  | 0.041 |  | 
CCCCC(=O)N[C@@H]1CC(=O)NCCCC[C@@H](C(N)=O)NC(=O)[C@H](Cc2c[nH]c3ccccc23)NC(=O)[C@@H](CCCN=C(N)N)NC(=O)[C@H](Cc2ccccc2)NC(=O)C2(CCc3c(Br)cccc3C2)NC1=O (single isomer, unassigned; form 2) |  |  | 70 | 
CCCCC(=O)N[C@@H]1CC(=O)NCCCC[C@@H](C(N)=O)NC(=O)[C@H](Cc2c[nH]c3ccccc23)NC(=O)[C@@H](CCCN=C(N)N)NC(=O)[C@H](Cc2ccccc2)NC(=O)C2(CCc3c(Cl)cccc3C2)NC1=O (single isomer, unassigned; form 2) |  |  | 60 | cAMP accumulation (Melanocortin receptor 5): 38%; cAMP accumulation (Melanocortin receptor 3): 0%
CCCCC(=O)N[C@@H]1CC(=O)NCCCC[C@@H](C(N)=O)NC(=O)[C@H](Cc2c[nH]c3ccccc23)NC(=O)[C@@H](CCCNC(N)=O)NC(=O)[C@H](Cc2ccccc2)NC(=O)C2(CCc3c(Cl)cccc3C2)NC1=O (single isomer, unassigned; form 2) |  |  | 0 | cAMP accumulation (Melanocortin receptor 5): 0%; cAMP accumulation (Melanocortin receptor 3): 0%
